test: Evaluation of coating properties (orthodichlorobenzene solution, spin coating); assay type: physicochemical; conditions: one mass % orthodichlorobenzene solution, filtered through a PTFE filter, spin coated on silicon substrate; thin film formed
Protocol: One mass % of orthodichlorobenzene solution of the fluorine-containing aromatic compound (II) obtained by the synthesis example (1-1) was prepared. The obtained solution was filtered with a PTFE (polytetrafluoroethylene) filter of which thickness was 0.45 μm, and thereafter, it was coated on a silicon substrate by the spin coating. A coating condition was 1500 rotations per minute for 30 seconds. Next, the silicon substrate was placed on the hot plate, and heated at 150° C. for 90 seconds. After that, a film thickness of a compound (II) layer formed on the silicon substrate was measured by using an AFM (atomic force microscope), and it was 70 nm.
One mass % of orthodichlorobenzene solution of the fluorine-containing aromatic compound (12) obtained by the synthesis example (2-1) was prepared. The obtained solution was filtered with the PTFE (polytetrafluoroethylene) filter of which thickness was 0.45 μm, and thereafter, it was coated on the silicon substrate by the spin coating. The coating condition was 1500 rotations per minute for 30 seconds. Next, the silicon substrate was placed on the hot plate, and the heating process was performed at 120° C. for 120 seconds. After that, a film thickness of a compound (12) layer formed on the silicon substrate was measured by using the AFM (atomic force microscope), and it was 80 nm.
One mass % of orthodichlorobenzene solution of the fluorine-containing aromatic compound (13) obtained by the synthesis example (3-1) was prepared. The obtained solution was filtered with the PTFE (polytetrafluoroethylene) filter of which thickness was […], and thereafter, it was coated on the silicon substrate by the spin coating. The coating condition was 1500 rotations per minute for 30 seconds. Next, the silicon substrate was placed on the hot plate, and heated at 120° C. for 120 seconds. After that, a film thickness of a fluorine-containing aromatic compound (13) layer formed on the silicon substrate was measured by using the AFM (atomic force microscope), and it was 90 nm.

Solubility for general solvents, good solubility:
CCCCCCOc1c(F)c(F)c(C#Cc2ccc(-c3ccc(-c4ccc(C#Cc5c(F)c(F)c(OCCCCCC)c(F)c5F)s4)s3)s2)c(F)c1F [Compound (13), 5,5″-bis((4-hexyloxytetrafluorophenyl)ethynyl)-2.2°: 5,2″-terthiophene]
CCCCCCOc1c(F)c(F)c2c(F)c(C#Cc3ccc4cc(C#Cc5c(F)c(F)c6c(F)c(OCCCCCC)c(F)c(F)c6c5F)ccc4c3)c(F)c(F)c2c1F [Compound (11), 2,6-bis((6-hexyloxyhexafluoronaphthalene-2-yl)ethynyl)naphthalene]
CCCCCCOc1c(F)c(F)c(C#Cc2ccc3cc(C#Cc4c(F)c(F)c(OCCCCCC)c(F)c4F)ccc3c2)c(F)c1F [Compound (12), 2,6-bis((4-hexyloxytetrafluorophenyl)ethynyl)naphthalene]

Reference: patent US20130119363A1, “FLUORINE-CONTAINING AROMATIC COMPOUND, ORGANIC SEMICONDUCTOR MATERIAL AND ORGANIC THIN FILM DEVICE” (ASAHI GLASS COMPANY, LIMITED, priority 2010, published 2013)
